# Source: patent EP2687213B1, “Solid forms comprising (+)-2-[1-(3-ethoxy-4-methoxyphenyl)-2-methylsulfonylethyl]-4-acetylaminoisoindoline-1,3-dione, compositions thereof, and uses thereof” (CELGENE CORPORATION, priority 2008, dated 2009)
# Assays:
# Format in all cases: biochemical
# Details in all cases: from PDE inhibition data of Table 1
# bovine PDE1 = test: PDE1 enzyme assay
# human PDE2 = human PDE2 (Homo sapiens, UniProt O00408); test: PDE2 enzyme assay
# [1] = biological target: PDE3 from human platelets (Homo sapiens, UniProt Q14432); test: PDE3 enzyme assay
# Chain of PDE3 from human platelets (Q14432 whole entry): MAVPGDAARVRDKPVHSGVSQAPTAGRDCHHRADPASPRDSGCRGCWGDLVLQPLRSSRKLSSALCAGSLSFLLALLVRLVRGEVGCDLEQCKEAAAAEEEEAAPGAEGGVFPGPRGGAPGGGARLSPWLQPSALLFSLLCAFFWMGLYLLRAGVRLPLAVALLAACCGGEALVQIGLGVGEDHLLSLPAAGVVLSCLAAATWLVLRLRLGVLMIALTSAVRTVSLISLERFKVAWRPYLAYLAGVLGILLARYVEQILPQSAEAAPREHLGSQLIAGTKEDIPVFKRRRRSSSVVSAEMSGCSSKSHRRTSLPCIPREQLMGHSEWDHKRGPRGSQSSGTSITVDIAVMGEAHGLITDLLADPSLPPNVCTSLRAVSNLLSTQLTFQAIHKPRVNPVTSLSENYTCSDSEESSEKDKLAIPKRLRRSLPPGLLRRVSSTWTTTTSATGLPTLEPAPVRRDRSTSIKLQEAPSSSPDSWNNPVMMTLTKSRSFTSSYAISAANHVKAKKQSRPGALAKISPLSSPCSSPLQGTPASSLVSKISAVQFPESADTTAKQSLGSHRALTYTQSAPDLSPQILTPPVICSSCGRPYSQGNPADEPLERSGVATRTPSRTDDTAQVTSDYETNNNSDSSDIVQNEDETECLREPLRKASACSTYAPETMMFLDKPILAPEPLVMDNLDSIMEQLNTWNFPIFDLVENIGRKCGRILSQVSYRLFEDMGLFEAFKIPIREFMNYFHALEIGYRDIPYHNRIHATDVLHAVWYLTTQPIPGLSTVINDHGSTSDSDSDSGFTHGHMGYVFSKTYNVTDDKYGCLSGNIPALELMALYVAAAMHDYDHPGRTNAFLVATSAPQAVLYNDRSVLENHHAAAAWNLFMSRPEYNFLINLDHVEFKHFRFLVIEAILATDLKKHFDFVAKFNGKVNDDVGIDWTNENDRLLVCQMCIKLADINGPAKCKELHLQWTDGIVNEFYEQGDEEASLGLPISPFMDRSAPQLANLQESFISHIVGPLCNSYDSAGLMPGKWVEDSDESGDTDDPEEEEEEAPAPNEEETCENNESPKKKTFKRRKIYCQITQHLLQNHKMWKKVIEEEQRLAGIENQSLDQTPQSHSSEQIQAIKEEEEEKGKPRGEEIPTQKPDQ
# [2] = biological target: PDE5 from human platelets (Homo sapiens, UniProt O76074); test: PDE5 enzyme assay
# [3] = biological target: PDE7 purified from Hut78 human T cells (Homo sapiens, UniProt Q13946); test: PDE7 enzyme assay
# Chain of PDE7 purified from Hut78 human T cells (Q13946 whole entry): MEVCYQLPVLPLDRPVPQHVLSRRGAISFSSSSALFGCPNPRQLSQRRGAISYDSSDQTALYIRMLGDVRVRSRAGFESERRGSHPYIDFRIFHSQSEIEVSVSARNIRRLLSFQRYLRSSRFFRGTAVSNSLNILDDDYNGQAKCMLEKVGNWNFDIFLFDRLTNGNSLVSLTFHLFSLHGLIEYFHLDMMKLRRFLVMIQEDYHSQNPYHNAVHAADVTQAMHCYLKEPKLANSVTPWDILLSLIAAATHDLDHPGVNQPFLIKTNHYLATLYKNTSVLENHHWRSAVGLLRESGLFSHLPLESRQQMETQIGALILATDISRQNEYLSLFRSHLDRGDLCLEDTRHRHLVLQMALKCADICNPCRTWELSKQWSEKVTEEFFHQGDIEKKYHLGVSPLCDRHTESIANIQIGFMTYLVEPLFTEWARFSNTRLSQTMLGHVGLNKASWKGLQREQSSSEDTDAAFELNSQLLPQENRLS
# Description: PDE7 is a cAMP-selective PDE expressed mainly in T cells and in skeletal muscle. T cell-derived cytokines such as IL-2 and IFN-γ are potentially regulatable via PDE7 inhibition. […] Compounds were tested against the PDE7 preparation in the presence of 10 nM cAMP as described for PDE4 in Table 1.
# Chain of human PDE2 (O00408 whole entry): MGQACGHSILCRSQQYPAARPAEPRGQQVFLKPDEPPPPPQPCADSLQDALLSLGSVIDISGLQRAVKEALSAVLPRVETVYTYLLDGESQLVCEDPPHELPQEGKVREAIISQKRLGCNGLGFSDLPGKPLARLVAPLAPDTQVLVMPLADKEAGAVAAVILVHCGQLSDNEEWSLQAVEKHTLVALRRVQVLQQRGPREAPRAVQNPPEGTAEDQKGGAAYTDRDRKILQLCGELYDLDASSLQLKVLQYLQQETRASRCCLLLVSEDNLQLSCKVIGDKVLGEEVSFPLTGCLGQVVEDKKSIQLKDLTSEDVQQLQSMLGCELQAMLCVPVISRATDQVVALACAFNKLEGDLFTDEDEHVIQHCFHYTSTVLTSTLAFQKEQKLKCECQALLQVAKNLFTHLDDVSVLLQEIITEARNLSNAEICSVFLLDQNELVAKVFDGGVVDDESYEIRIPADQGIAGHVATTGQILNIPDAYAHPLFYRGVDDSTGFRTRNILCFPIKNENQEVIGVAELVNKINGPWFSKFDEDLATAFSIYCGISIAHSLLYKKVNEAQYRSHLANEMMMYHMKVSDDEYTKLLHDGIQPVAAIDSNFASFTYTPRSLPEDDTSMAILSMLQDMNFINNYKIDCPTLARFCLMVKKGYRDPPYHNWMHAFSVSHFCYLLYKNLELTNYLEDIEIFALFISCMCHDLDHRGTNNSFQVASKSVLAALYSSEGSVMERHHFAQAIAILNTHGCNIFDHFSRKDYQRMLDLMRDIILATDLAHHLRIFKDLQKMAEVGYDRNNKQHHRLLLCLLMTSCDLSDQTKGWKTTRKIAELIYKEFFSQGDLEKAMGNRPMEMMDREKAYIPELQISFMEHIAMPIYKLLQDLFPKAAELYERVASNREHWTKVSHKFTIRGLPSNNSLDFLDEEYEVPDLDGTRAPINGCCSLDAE
compound,measurement,setting,value
"CCOc1cc(C(CS(C)(=O)=O)N2C(=O)c3cccc(NC(C)=O)c3C2=O)ccc1OC (racemic) [Racemic Compound, 2-[1-(3-Ethoxy-4-methoxyphenyl)-2-methylsulfonylethyl]-4-acetylaminoisoindoline-1,3-dione]",PDE Specificity Ratio PDE4/PDE1,bovine PDE1,>2700 fold
same,PDE Specificity Ratio PDE4/PDE2,human PDE2,>800 fold
same,PDE Specificity Ratio PDE4/PDE3,[1],>670 fold
same,PDE Specificity Ratio PDE4/PDE5,[2],>12000 fold
same,PDE Specificity Ratio PDE7 IC50/PDE4 IC50,[3],270 fold
